Blank lines part the entries; values can stand above or below the molecule they belong to.
Key:
Type in all cases: physicochemical
[1] = Stability test 1: high temperature, high humidity, light, accelerated conditions, XRPD; details: 15 days
Method: Around 20 mg of samples were weighed into weighing bottles, stored under high temperature (60° C.), high humidity (25° C., 92.5% RH), light (25° C., 4500 Lux), accelerated (40° C., 75% RH) conditions, respectively, and samples were collected at days 7 and 15 for XRPD characterization.

[2] = Dynamic moisture sorption and desorption analysis (DVS)
Method: Dynamic Moisture Sorption and Desorption Analysis The dynamic moisture sorption and desorption analysis was determined using DVS Intrinsic (SMS, UK). The test was carried out in a gradient mode with a humidity change of 50%-95%-0%-50%, and a humidity change of 10% per gradient in the range of 0% to 90%, and the gradient endpoint was determined in dm/dt, with the gradient endpoint being dm/dt less than 0.002% and held for 10 minutes. After the test was complete, XRPD analysis of the sample was carried out to confirm whether the solid morphology has changed.

[3] = Stability test 5: 30° C.±2° C., 65% RH±5% RH, HPLC related substances; details: for Crystal form / Related Substances (%) Maximum individual impurity / Related Substances (%) Total impurity: 30° C.±2° C.
Method: The Form C sample was measured using the HPLC method at 30° C.±2° C., 65% RH±5% RH at months 0, 3, 6, 9, and 12 using a double layer pharmaceutical low density polyethylene bag as an inner wrap and a polyester/aluminum/polyethylene pharmaceutical composite bag as an outer wrap.

[4] = Stability test 2: 40° C.±2° C., 75% RH±5% RH, HPLC related substances and crystal form; details: for Crystal form / Related Substances (%) Maximum individual impurity / Related Substances (%) Total impurity: 40° C.±2° C.
Method: The Form C sample was measured using the HPLC method at 40° C.±2° C., 75% RH±5% RH at months 0, 1, 2, 3, and 6 using a double layer pharmaceutical low density polyethylene bag as an inner wrap and a polyester/aluminum/polyethylene pharmaceutical composite bag as an outer wrap.

[5] = Stability test 3: 5° C.±3° C., HPLC related substances; details: for Crystal form / Related Substances (%) Maximum individual impurity / Related Substances (%) Total impurity: 5° C.±3° C.
Method: The Form C sample was measured using the HPLC method at 5° C.±3° C. at months 0, 3, 6, 9, and 12 using a double layer pharmaceutical low density polyethylene bag as an inner wrap and a polyester/aluminum/polyethylene pharmaceutical composite bag as an outer wrap.

[6] = Stability test 4: 25° C.±2° C., 60% RH±5% RH, HPLC related substances; details: for Crystal form / Related Substances (%) Maximum individual impurity / Related Substances (%) Total impurity: 25° C.±2° C.
Method: The Form C sample was measured using the HPLC method at 25° C.±2° C., 60% RH±5% RH at months 0, 3, 6, 9, and 12 using a double layer pharmaceutical low density polyethylene bag as an inner wrap and a polyester/aluminum/polyethylene pharmaceutical composite bag as an outer wrap.

[7] = Crystal form on leaving to stand at room temperature; details: room temperature for 3 days
Method: To 100 mg of the compound of formula I prepared in Example 1, 1 ml of methanol was added and heated to reflux. 1 ml of acetonitrile was added dropwise, slowly cooled to room temperature, stirred for 3-5 h and centrifuged, and the resulting solid was dried under vacuum overnight at room temperature to give Form U. Form U of the compound of formula I was characterized by XRPD, DSC and TGA, as shown in FIGS. 41-42, respectively. […] Based on the integration results, the roughly estimated mass percentage is about 5.2%. In summary, Form U is a solvate of acetonitrile in a ratio of 1:1 of the compound to acetonitrile.

[8] = Thermal crystal transformation test (hot stage, XRPD)
Method: The present invention further provides a method for preparing the polymorph of any one of Form A to Form Z, including: • (1) suspension method: adding a crude free base of the compound of formula I (which can be prepared according to the methods described in WO 2019240938 A1) to a selected single or binary solvent until a suspension is formed and stirring same under suspension at room temperature to 50° C. for a period of time (e.g., 1 h to 3 days, or 2 h to 24 h, or 2 h to 12 h, or 3 h to 5 h), and then centrifuging and separating the suspension, followed by drying, to obtain the product; or • (2) Anti-solvent crystallization method: adding a crude free base of the compound of formula I to an appropriate amount of a good solvent until completely dissolved, taking an amount of the solution and dropwise adding same to a poor solvent or dropwise adding a poor solvent to the solution, and stirring same to precipitate a solid, followed by separation and drying to obtain the product; or • (3) cooling method: adding a crude free base of the compound of formula I to an appropriate amount of a solvent at 50-80° C. until the solid is just completely dissolved, and transferring the solution to an environment at room temperature for cooling, followed by leaving to stand or crystallization under stirring, separation and drying to obtain the product; or • (4) vapor diffusion method: dropwise adding an appropriate amount of a good solvent to an amount of a crude free base of the compound of formula I at room temperature to completely dissolve the sample or formulating same as a saturated solution of a good solvent; and separately taking an amount of the solution, and leaving the clear solution to stand in a poor solvent atmosphere at room temperature until a solid precipitates out, followed by separation, to obtain the product; or • (5) thermal crystal transformation method: placing an amount of the sample on a glass plate on a hot stage, heating same to the target temperature at a rate (e.g., 5-20° C./min, or 10-15° C./min), and maintaining the temperature for a period of time (e.g., 0.5-5 min, or 1-3 min, or 1-2 min), followed by naturally cooling down to room temperature to obtain a solid.
The different crystal forms, as raw materials, were heated to the target temperature on a hot table and held for 1 min, and cooled to room temperature to obtain solids for the XRPD test.

- crystal form stability (XRPD) ([1]; accelerated (40° C., 75% RH)): no change in crystal form
- crystal form stability (XRPD) ([1]; high humidity (25° C., 92.5% RH)): no change in crystal form
- crystal form stability (XRPD) ([1]; high temperature (60° C.)): no change in crystal form
- crystal form stability (XRPD) ([1]; light (25° C., 4500 Lux)): no change in crystal form
- hygroscopicity ([2]; DVS 50%-95%-0%-50% humidity): almost no hygroscopicity
- DVS weight loss ([2]; at 0% humidity): 0.13%
- DVS weight gain ([2]; at 95% humidity): 0.20%
- crystal form after the DVS test (XRPD) ([2]; samples after the DVS test): no change in crystal form
- Crystal form ([3]; 0 months): Form C
- Related Substances (%) Maximum individual impurity ([3]; 0 months): 0.05%
- Related Substances (%) Total impurity ([3]; 0 months): 0.26%
- Crystal form ([3]; 3 months): Form C
- Related Substances (%) Maximum individual impurity ([3]; 3 months): 0.05%
- Related Substances (%) Total impurity ([3]; 3 months): 0.26%
- Crystal form ([3]; 6 months): Form C
- Related Substances (%) Maximum individual impurity ([3]; 6 months): 0.05%
- Related Substances (%) Total impurity ([3]; 6 months): 0.27%
- Crystal form ([3]; 9 months): Form C
- Related Substances (%) Maximum individual impurity ([3]; 9 months): 0.05%
- Related Substances (%) Total impurity ([3]; 9 months): 0.25%
- Crystal form ([3]; 12 months): Form C
- Related Substances (%) Maximum individual impurity ([3]; 12 months): 0.05%
- Related Substances (%) Total impurity ([3]; 12 months): 0.26%
- stability (related substances) ([3]; within 12 months at 30° C.±2° C.): good stability
- Crystal form ([4]; 0 months): Form C
- Related Substances (%) Maximum individual impurity ([4]; 0 months): 0.05%
- Related Substances (%) Total impurity ([4]; 0 months): 0.26%
- Crystal form ([4]; 1 month): Form C
- Related Substances (%) Maximum individual impurity ([4]; 1 month): 0.05%
- Related Substances (%) Total impurity ([4]; 1 month): 0.25%
- Crystal form ([4]; 2 months): Form C
- Related Substances (%) Maximum individual impurity ([4]; 2 months): 0.05%
- Related Substances (%) Total impurity ([4]; 2 months): 0.26%
- Crystal form ([4]; 3 months): Form C
- Related Substances (%) Maximum individual impurity ([4]; 3 months): 0.05%
- Related Substances (%) Total impurity ([4]; 3 months): 0.26%
- Crystal form ([4]; 6 months): Form C
- Related Substances (%) Maximum individual impurity ([4]; 6 months): 0.05%
- Related Substances (%) Total impurity ([4]; 6 months): 0.28%
- stability (related substances) ([4]; within 6 months at 40° C.±2° C.): good stability
- Crystal form ([5]; 0 months): Form C
- Related Substances (%) Maximum individual impurity ([5]; 0 months): 0.05%
- Related Substances (%) Total impurity ([5]; 0 months): 0.26%
- Crystal form ([5]; 3 months): Form C
- Related Substances (%) Maximum individual impurity ([5]; 3 months): 0.05%
- Related Substances (%) Total impurity ([5]; 3 months): 0.27%
- Crystal form ([5]; 6 months): Form C
- Related Substances (%) Maximum individual impurity ([5]; 6 months): 0.05%
- Related Substances (%) Total impurity ([5]; 6 months): 0.26%
- Crystal form ([5]; 9 months): Form C
- Related Substances (%) Maximum individual impurity ([5]; 9 months): 0.05%
- Related Substances (%) Total impurity ([5]; 9 months): 0.26%
- Crystal form ([5]; 12 months): Form C
- Related Substances (%) Maximum individual impurity ([5]; 12 months): 0.05%
- Related Substances (%) Total impurity ([5]; 12 months): 0.26%
- stability (related substances) ([5]; within 12 months at 5° C.±3° C.): good stability
- Crystal form ([6]; 0 months): Form C
- Related Substances (%) Maximum individual impurity ([6]; 0 months): 0.05%
- Related Substances (%) Total impurity ([6]; 0 months): 0.26%
- Crystal form ([6]; 3 months): Form C
- Related Substances (%) Maximum individual impurity ([6]; 3 months): 0.05%
- Related Substances (%) Total impurity ([6]; 3 months): 0.27%
- Crystal form ([6]; 6 months): Form C
- Related Substances (%) Maximum individual impurity ([6]; 6 months): 0.05%
- Related Substances (%) Total impurity ([6]; 6 months): 0.26%
- Crystal form ([6]; 9 months): Form C
- Related Substances (%) Maximum individual impurity ([6]; 9 months): 0.05%
- Related Substances (%) Total impurity ([6]; 9 months): 0.26%
- Crystal form ([6]; 12 months): Form C
- Related Substances (%) Maximum individual impurity ([6]; 12 months): 0.05%
- Related Substances (%) Total impurity ([6]; 12 months): 0.27%
- stability (related substances) ([6]; within 12 months at 25° C.±2° C.): good stability
Compound: [2H]C([2H])([2H])[C@@H]1CCc2c(Oc3c(Cl)cc(-n4nc(C#N)c(=O)[nH]c4=O)cc3Cl)n[nH]c(=O)c21 [Form C, (R)-2-(3,5-dichloro-4-((7-(methyl-d3)-1-oxo-2,5,6,7-tetrahydro-1H-cyclopenta [d]pyridazin-4-yl)oxy)phenyl)-3,5-dioxo-2,3,4,5-tetrahydro-1,2,4-triazine-6-carbonitrile]

- crystal form after leaving to stand [7]: Form L
- crystal form after thermal crystal transformation ([8]; heated to 250° C.): Form C
- Results (crystal form after thermal crystal transformation, XRPD) ([8]; target temperature 250° C., heating rate 10° C./min, holding time 1 min): Form C
Compound: [2H]C([2H])([2H])[C@@H]1CCc2c(Oc3c(Cl)cc(-n4nc(C#N)c(=O)[nH]c4=O)cc3Cl)n[nH]c(=O)c21 [Form U, (R)-2-(3,5-dichloro-4-((7-(methyl-d3)-1-oxo-2,5,6,7-tetrahydro-1H-cyclopenta [d]pyridazin-4-yl)oxy)phenyl)-3,5-dioxo-2,3,4,5-tetrahydro-1,2,4-triazine-6-carbonitrile]
